From patent US6875761B2 (Eisai Co., Ltd., priority 1997, dated 2005)
Structures can show the parent of a compound that is named as a salt.

Columns and labels:
serotonin 1A receptor = target: T1, serotonin 1A receptor (Rattus norvegicus, UniProt P19327); assay: Binding test on [3H] 8-hydroxy-dipropylaminotetralin, hippocampus receptor fraction; parameters: species or system SD rats; details: rat hippocampus receptor fraction, 0.5 nM [3H] 8-OH-DPAT, room temperature 30 min; read-out: 5HT1
T1 construct: To the receptor fraction of the hippocampus were added a test compound and 0.5 nM of [^3H]; 8-hydroxy-dipropylaminotetralin; from tissue; host or cells: rat hippocampus membrane fraction
T1 sequence (P19327 1-422): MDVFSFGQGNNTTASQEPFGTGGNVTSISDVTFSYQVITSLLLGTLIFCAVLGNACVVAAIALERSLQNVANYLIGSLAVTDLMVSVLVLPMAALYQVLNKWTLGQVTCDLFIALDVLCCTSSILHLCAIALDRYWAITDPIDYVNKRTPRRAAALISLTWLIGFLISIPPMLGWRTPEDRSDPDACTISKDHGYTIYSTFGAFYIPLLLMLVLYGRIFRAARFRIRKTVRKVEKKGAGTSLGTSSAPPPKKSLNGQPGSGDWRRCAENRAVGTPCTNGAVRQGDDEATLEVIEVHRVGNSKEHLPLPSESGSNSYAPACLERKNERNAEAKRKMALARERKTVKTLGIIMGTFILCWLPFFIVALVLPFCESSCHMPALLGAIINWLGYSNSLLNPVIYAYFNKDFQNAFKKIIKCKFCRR

serotonin 2 receptor = target: T2, serotonin 2 receptor (Rattus norvegicus, UniProt P14842); assay: Binding test on [3H] ketanserin, cerebral cortex receptor fraction; parameters: species or system SD rats; details: 0.3 nM [3H] ketanserin, 37° C. 15 min, read-out: 5HT2
T2 construct: To the receptor fraction of the cerebral cortex were added a test compound and 0.3 nM of [^3H] ketanserin; from tissue; host or cells: rat cerebral cortex membrane fraction
T2 sequence (P14842 whole entry): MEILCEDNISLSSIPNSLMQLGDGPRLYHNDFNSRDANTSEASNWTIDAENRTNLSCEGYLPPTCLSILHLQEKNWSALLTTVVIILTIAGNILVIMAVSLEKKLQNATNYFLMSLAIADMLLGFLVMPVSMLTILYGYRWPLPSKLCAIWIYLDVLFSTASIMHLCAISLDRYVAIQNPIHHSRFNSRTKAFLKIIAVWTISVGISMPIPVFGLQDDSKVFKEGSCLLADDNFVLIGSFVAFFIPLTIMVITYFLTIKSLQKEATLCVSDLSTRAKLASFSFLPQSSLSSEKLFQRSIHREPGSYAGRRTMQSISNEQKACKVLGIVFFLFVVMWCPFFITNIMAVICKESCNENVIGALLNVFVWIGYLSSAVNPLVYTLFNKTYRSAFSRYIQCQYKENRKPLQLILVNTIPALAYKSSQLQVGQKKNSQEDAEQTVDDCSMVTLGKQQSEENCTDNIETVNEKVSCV

Row | Ki (serotonin 1A receptor) [µM] | Ki (serotonin 2 receptor) [µM] | SMILES
1 | 0.0313 | 0.0034 | CCN1CCN(c2nc(-c3ccc([C@@H]4C[C@H](O)CCO4)cc3)cc3ccccc23)CC1 (relative stereo) [Example 401, 1-(4-Ethylpiperazin-1-yl)-3-[4-(cis-4-Hydroxytetrahydropyran-2-yl)Phenyl]Isoquinoline Dihydrochloride]
2 | 0.0237 | 0.0021 | CCN1CCN(c2nc(-c3ccc([C@@H]4C[C@@H](O)CCO4)cc3)cc3ccccc23)CC1 (relative stereo) [Example 402, 1-(4-Ethylpiperazin-1-yl)-3-[4-(trans-4-Hydroxytetrahydropyran-2-yl)Phenyl]Isoquinoline Dihydrochloride]
3 | 0.0674 | 0.0265 | CCN1CCN(c2nc(-c3ccc([C@@H]4C[C@H](O)CCO4)cc3)cc3ccsc23)CC1 (relative stereo) [Example 454, 7-(4-Ethylpiperazin-1-yl)-5-[4-(cis-4-hydroxytetrahydropyran-2-yl)phenyl]thieno[2,3-c]pyridine dihydrochloride]
4 | 0.0503 | 0.04 | CCN1CCN(c2nc(-c3ccc([C@@H]4C[C@@H](O)CCO4)cc3)cc3ccsc23)CC1 (relative stereo) [Example 455, 7-(4-ethylpiperazin-1-yl)-5-[4-(trans-4-hydroxytetrahydropyran-2-yl)phenyl]thieno[2,3-c]pyridine dihydrochloride]
5 | 0.0916 | 0.00762 | CCN1CCN(c2nc(C=C(COC)c3ccccc3)cc3ccccc23)CC1 (stereo in doubt) [Example 208, 3-[(E)-2-Methoxymethyl-2-Phenylethenyl]-1-(4-Ethylpiperazin-1-Yl)Isoquinoline Oxalate]
6 | 0.087 | 0.0139 | CCN1CCN(c2nc(-c3ccc(OCC(C)O)cc3)cc3cccnc23)CC1 (stereo in doubt) [Example 246, 8-(1-ethylpiperazin-4-yl)-6-{4-[(S)-2-hydroxypropoxy}phenyl]-1,7-naphthyridine Dihydrochloride]
7 | 0.0154 | 0.0194 | CCN1CCN(c2nc(-c3ccc(OCC(C)O)cc3)cc3ccoc23)CC1 (stereo in doubt) [Example 304, 7-(1-ethylpiperazin-4-yl)-5-[4-[(S)-2-hydroxypropoxy]phenyl)furo[2,3-c]pyridine dihydrochloride]
8 | 0.00698 | 0.0209 | CCN1CCN(c2nc(-c3ccc(O[C@H](C)CO)cc3)cc3sccc23)CC1 (stereo in doubt) [Example 463, 4-(4-ethylpiperazin-1-yl)-6-[4-(2-hydroxy-1-methylethoxy)phenyl]thieno[3,2-c]pyridine dihydrochloride]
9 | 0.025 | 0.029 | CN(C)CCC=C1c2ccccc2C=Cc2ccccc21 [Cyclobenzaprine, cyclobenzaprine hydrochloride, reference compound]
10 | 0.071 | 0.0749 | CCN1CCN(c2nc(-c3ccc(C(F)(F)F)cc3)cc3ccccc23)CC1 [Example 4, 1-(4-ethylpiperazin-1-yl)-3-(4-trifluoromethylphenyl)isoquinoline Dihydrochloride]
11 | 0.021 | 0.0022 | CCC(F)c1ccc(-c2cc3ccccc3c(N3CCN(CC)CC3)n2)cc1 (stereo not drawn) [Example 5, 1-(4-ethylpiperazin-1-yl)-3-[4-(1-fluoropropyl)phenyl]isoquinoline Hydrochloride]
12 | 0.06 | 0.011 | CCN1CCN(c2nc(-c3ccc(OC)cc3)cc3ccccc23)CC1 [Example 10, 1-(4-Ethylpiperazin-1-yl)-3-(4-methoxyphenyl)isoquinoline]
13 | 0.023 | 0.035 | CCN1CCN(c2nc(-c3ccc(OC)c(OC)c3)cc3ccccc23)CC1 [Example 14, 3-(3,4-dimethoxyphenyl)-1-(4-ethylpiperazin-1-yl)isoquinoline Dihydrochloride]
14 | 0.0555 | 0.0195 | CCN1CCN(c2nc(-c3cc(OC)cc(OC)c3)cc3ccccc23)CC1 [Example 15, 3-(3,5-dimethoxyphenyl)-1-(4-ethylpiperazin-1-yl)isoquinoline Dihydrochloride]
15 | 0.0111 | 0.0268 | CCN1CCN(c2nc(-c3ccc(CO)cc3)cc3ccccc23)CC1 [Example 17, 1-(4-ethylpiperazin-1-yl)-3-(4-hydroxymethylphenyl)isoquinoline hydrochloride]
16 | 0.0117 | 0.0074 | CCN1CCN(c2nc(-c3ccc(C(O)CCO)cc3)cc3ccccc23)CC1 (stereo not drawn) [Example 24, 3-[4-(1,3-dihydroxypropyl)phenyl]-1-(4-ethylpiperazin-1-yl)isoquinoline hydrochloride]
17 | 0.0244 | 0.0091 | CCN1CCN(c2nc(-c3ccc(CO)c(F)c3)cc3ccccc23)CC1 [Example 28, 1-(4-ethylpiperazin-1-yl)-3-[4-(4-hydroxymethyl-3-fluoro)phenyl]isoquinoline hydrochloride]
18 | 0.0107 | 0.0063 | CCN1CCN(c2nc(-c3ccc(CCCO)c(Cl)c3)cc3ccccc23)CC1 [Example 30, 3-[3-chloro-4-(3-hydroxypropyl)phenyl]-1-(4-ethylpiperazin-1-yl)isoquinoline hydrochloride]
19 | 0.0235 | 0.0173 | CCN1CCN(c2nc(-c3ccc(OC)c(CCCO)c3)cc3ccccc23)CC1 [Example 34, 3-[3-(3-hydroxypropyl)-4-methoxyphenyl]-1-(4-ethylpiperazin-1-yl)isoquinoline hydrochloride]
20 | 0.0353 | 0.0057 | CCN1CCN(c2nc(-c3ccc(OC)c(CCCCO)c3)cc3ccccc23)CC1 [Example 35, 3-[3-(4-hydroxybutyl)-4-methoxyphenyl]-1-(4-ethylpiperazin-1-yl)isoquinoline hydrochloride]

Row | SMILES | Ki (serotonin 1A receptor) [µM] | Ki (serotonin 2 receptor) [µM]
21 | CCN1CCN(c2nc(-c3ccnc(OCc4ccccc4)c3)cc3ccccc23)CC1 [406 2-Benzyloxy, 1-(4-ethylpiperazin-1-yl)-3-(2-benzyloxypyridin-4-yl)isoquinoline] | 0.046 | 0.0881
22 | CCN1CCN(c2nc(-c3ccnc(Cl)c3)cc3ccccc23)CC1 [406 2-chloro, 1-(4-ethylpiperazin-1-yl)-3-(2-chloropyridin-4-yl)isoquinoline] | 0.0122 | 0.0111
23 | CN1CCN(c2nc(-c3ccc(OCCO)cc3)cc3ccccc23)CC1 [Example 3, 1-(1-methylpiperazin-4-yl)-3-[4-(2-hydroxyethoxy)phenyl]isoquinoline] | 0.065 | 0.0038
24 | CCN1CCN(c2nc(-c3cccc(OC)c3)cc3ccccc23)CC1 [Example 9, 1-(4-ethylpiperazin-1-yl)-3-(3-methoxyphenyl)isoquinone Dihydrochloride] | 0.057 | 0.0245
25 | CCN1CCN(c2nc(-c3ccc(C(O)CC(C)(C)O)cc3)cc3ccccc23)CC1 (stereo not drawn) [Example 25, 3-[4-(1,3-dihydroxy-3-methylbutyl)phenyl]-1-(4-ethylpiperazin-1-yl)isoquinoline] | 0.0215 | 0.0034
26 | CCN1CCN(c2nc(-c3ccc(C(CC(C)O)OC)cc3)cc3ccccc23)CC1 (stereo not drawn) [Example 26, 3-[4-(3-hydroxy-1-methoxybutyl)phenyl]-1-(4-ethylpiperazin-1-yl)isoquinoline] | 0.0085 | 0.055
27 | CCN1CCN(c2nc(-c3ccc(C(F)CCO)cc3)cc3ccccc23)CC1 (stereo not drawn) [Example 27, 1-(1-Ethylpiperazin-4-yl)-3-[4-(3-hydroxy-1-fluoropropyl)phenyl]isoquinoline] | 0.0294 | 0.00247
